# How the values were obtained:
# [1] = tested on: patients with mild to moderate asthma; test: 4 week study in patients with mild to moderate asthma (FEV1); format: in vivo, human; conditions: after 4 weeks, 100 mg twice daily
# Method: 4 Week Study in Patients with Mild to Moderate Asthma
# The study was a randomized, double blind, placebo controlled study of (5-fluoro-2-methyl-3-quinolin-2-ylmethyl-indol-1-yl)-acetic acid (OC000459) for 28 days in patients with mild to moderate asthma with a FEV1 of 60-80% of predicted and requiring only short acting inhaled β2 agonists for symptomatic control. The study compared patients taking 100 mg of OC000459 twice daily with patients taking a placebo twice daily. The study consisted of 112 patients with 53 patients taking OC000459 and 59 patients taking the placebo.
# 1. Males and females aged 18-55 years. 2. Asthma controlled by short-acting β2 agonists only. 3. Mild to moderate persistent asthma according to GINA4 guidelines for at least 12 months. 4. Non-smokers for at least the past 12 months with a pack history of less than 10 pack years. 5. History of asthma symptoms increasing in response to external allergens. 6. Testing positive on skin prick test to an allergen associated with the patient's allergen.
# 1. Receipt of prescribed or over-the-counter medication within 14 days prior to the first study day. 2. Use of inhaled or local corticosteroids in the period 28 days prior to screening.
# [2] = tested on: patients with mild to moderate persistent asthma; test: 12 week study in patients with mild to moderate persistent asthma (FEV1); format: in vivo, human; conditions: for FEV1 Improvement: 12 weeks, patient population on OC000459; for improvement in FEV1 over patients given the placebo / improvement in FEV1 over baseline: after 12 weeks
# Method: 12 Week Study in Patients with Mild to Moderate Persistent Asthma
# The study was a randomized, double blind, placebo controlled, four arm study of three dosage levels of (5-fluoro-2-methyl-3-quinolin-2-ylmethyl-indol-1-yl)-acetic acid (OC000459) tablets in patients with asthma controlled by β2 agonists alone. The study compared patients on OC000459 at three different dose levels (25 mg once daily, 100 mg twice daily, and 200 mg once daily) with patients on placebo after dosing for 12 weeks. The study consisted of 460 patients which yielded 440 evaluable results with 110 patients per arm. There was a screening period of 1 to 2 weeks, followed by placebo run-in for 3 weeks before the treatment period. There was a placebo wash-out for two weeks following the treatment period with a follow-up 3 to 5 weeks after the treatment period.
# 1. Males and females aged 18-55 years. 2. Asthma controlled by short-acting β2 agonists only. 3. Mild to moderate persistent asthma according to GINA4 guidelines for at least 12 months. 4. Non-smokers for at least the past 12 months with a pack history of less than 10 pack years.
# Receipt of prescribed or over-the-counter medication within 14 days prior to the first study day.
# 1. Morning FEV1 of 60-85% of predicted. 2. Reversibility of ≧12% after salbutamol. 3. Greater than 1 puff per day of salbutamol required.
# [3] = blood eosinophil count greater than or equal to 250/μL, FIG. 6(b)
# [4] = full population (112 patients), FIG. 6(a)
# [5] = FEV1 60-80% of predicted and positive skin prick test at baseline, FIG. 1
# [6] = FEV1 60-80% of predicted, blood eosinophil count greater than or equal to 250/μL, positive skin prick test, FIG. 2
structure (smiles),measurement,setting,value
"Cc1c(Cc2ccc3ccccc3n2)c2cc(F)ccc2n1CC(=O)O [OC000459, (5-fluoro-2-methyl-3-quinolin-2-ylmethyl-indol-1-yl)-acetic acid]",improvement in FEV1 over baseline,[1]; [3],250 mL
same,improvement in FEV1 over patients given the placebo,[1]; [3],180 mL
same,improvement in FEV1 over patients given the placebo,"[1]; blood eosinophil count less than 250/μL, FIG. 6(c)",only a small improvement
same,improvement in FEV1 over baseline,[1]; [4],190 mL
same,improvement in FEV1 over patients given the placebo,[1]; [4],100 mL
same,FEV1 Improvement,[2]; 60-80% FEV1 Atopic,130 mL
same,FEV1 Improvement,[2]; All-Comers,100 mL
same,FEV1 Improvement,[2]; Hi-eosinophil count (>250/μL),188 mL
same,improvement in FEV1 over patients given the placebo,"[2]; ACQ score greater than or equal to 1.5 at baseline, FIG. 4",140 mL
same,improvement in FEV1 over patients given the placebo,"[2]; ACQ score less than 1.5 at baseline, FIG. 5",30 mL
same,improvement in FEV1 over baseline,[2]; [5],191 mL
same,improvement in FEV1 over patients given the placebo,[2]; [5],130 mL
same,improvement in FEV1 over baseline,[2]; [6],184 mL
same,improvement in FEV1 over patients given the placebo,[2]; [6],188 mL
same,improvement in FEV1 over patients given the placebo,"[2]; FEV1 60-80% of predicted, blood eosinophil count less than 250/μL, positive skin prick test, FIG. 3",76 mL
